As usually defined, the MIC is the lowest concentration found to suppress growth.

Like-named read-outs stand apart in the source and are kept apart here.

Among the data in patent US12084445B2, “Broad-spectrum carbapenems” (VenatoRx Pharmaceuticals, Inc., priority 2018, dated 2024) are MIC values, retold here.

What all share (assay type): cell-based
The subject of assay [1] is S. aureus ATCC 33591 (methicillin-resistant). Kind of assay: broth microdilution MIC assay, S. aureus ATCC 33591. The settings on record: Staphylococcus aureus. As for the experimental part:
(§1) To determine the ability of test compounds to potentiate the inhibition of the growth of bacterial strains, classic cell-based broth microdilution MIC assays were employed. MIC assays are performed according to CLSI methods except where otherwise noted (CLSI, 2011 and CLSI, 2009). The reference strains S. aureus ATCC 29213 (methicillin sensitive), S. aureus ATCC 33591 (methicillin-resistant), E. coli ATCC 25922 (wild-type/QC strain), P. aeruginosa ATCC 27853 (wild-type/QC strain), and the clinical isolate P. aeruginosa PA 8 were used to determine the ability of the exemplary carbapenem compounds to inhibit bacterial growth. An expanded panel of methicillin resistance S. aureus (MRSA) and Pseudomonas was also used to determine the ability of exemplary carbapenem compounds to inhibit bacterial growth across a broader representation of those species. To determine activity in MRSA and in addition to S. aureus ATCC 33591, S. aureus USA 300, USA 400 and USA 600, some of the most common clones found to cause human infection, were also used. To further gauge the impact on the carbapenem compounds due to various resistance mechanisms in Pseudomonas, the following strains were included: P. aeruginosa 35151 (hyper-permeable strain), P. aeruginosa AmexAB-OprM (an efflux pump knockout), and P. aeruginosa PA 3 (a clinical isolate of reduced carbapenem susceptibility). Briefly, cryo-preserved bacterial cultures of clinical strains are streaked for isolation on appropriate agar medium, in this case Mueller Hinton II agar. Following incubation to allow formation of colonies, these plates are sealed with parafilm and stored refrigerated for up to two weeks. For preparation of assay inocula and to ensure low variability, at least 5 colonies are picked from the agar plates with an inoculating loop and aseptically transferred to a culture tube containing 3 mL of Mueller-Hinton Broth (supplemented with divalent cations to required levels based on Manufacturers' specification). The broth culture is grown for 3-5 hours at 37° C. with shaking at 200 rpm. Meanwhile, 2-fold serial dilutions of test compounds are conducted in a 96 well plate with a final volume of 75 μL per well at 2-fold the final desired concentration. After the dilution plates are set up the growing cultures are then diluted in a cuvette containing MH II broth and the optical density is measured at 600 nm. Inocula are diluted such that 75 μL of this culture in Mueller-Hinton Broth results in a starting bacterial concentration of 5×10^5 CFU/mL when added to the dilution plates. The plates are incubated 16-20 hours at 37° C. The MIC is read visually as the lowest concentration well with no bacterial growth.
(§2) Representative results are shown in Tables 3, 4, and 5 where A represents an MIC>32 μg/mL, B represents an MIC between 8 and 32 μg/mL inclusive, C represents an MIC between 1 and 4 μg/mL inclusive, and D represents an MIC of <1 μg/mL. NT=Not Tested.

The subject of assay [2] is E. coli ATCC 25922 (wild-type/QC strain). The experiment in a line: broth microdilution MIC assay, E. coli ATCC 25922. As to conditions: Escherichia coli. Here is the method: as §1, §2
In assay [3] the test system is P. aeruginosa ATCC 27853 (wild-type/QC strain). The experiment in a line: broth microdilution MIC assay, P. aeruginosa ATCC 27853. The settings on record: Pseudomonas aeruginosa. Here is the method: as §1, §2
The subject of assay [4] is clinical isolate P. aeruginosa PA 8. The experiment in a line: broth microdilution MIC assay, P. aeruginosa PA 8. The settings on record: Pseudomonas aeruginosa; Table 3; P. aeruginosa PA8. Here is the method:
as §1, §2

A further assay has as its system S. aureus USA 300. Kind of assay: broth microdilution MIC assay, S. aureus USA 300. As to conditions: Staphylococcus aureus. Here is the method:
as §1, §2
A general note: In broth dilution the organism is exposed to a series of concentrations in liquid medium.

The next assay concerns S. aureus USA600. The experiment in a line: broth microdilution MIC assay, S. aureus USA 600. As to conditions: Staphylococcus aureus. As for the experimental part:
as §1, §2

In assay [5] the test system is P. aeruginosa 35151 (hyper-permeable strain). The experiment in a line: broth microdilution MIC assay, P. aeruginosa 35151. As to conditions: Pseudomonas aeruginosa, read-out: P. aeruginosa 35151 MIC. Here is the method: as §1, §2
The subject of assay [6] is P. aeruginosa ΔmexAB-OprM (an efflux pump knockout). Kind of assay: broth microdilution MIC assay, P. aeruginosa ΔmexAB-OprM. As to conditions: Pseudomonas aeruginosa, 20 h, read-out: P. aeruginosa ΔmexAB-OprM MIC. As for the experimental part:
as §1, §2

Setting [7] is: ATCC 33591 / MRSA, Table 3, S. aureus 33591 (MRSA), read-out: S. aureus 33591 (MRSA) MIC.
The mark [8] stands for this setting: ATCC25922, Table 3, E. coli 25922, read-out: E. coli 25922 MIC.
[9] abbreviates: ATCC27853, Table 3, P. aeruginosa 27853, read-out: P. aeruginosa 27853 MIC.
Where [10] appears, read: ATCC33591, Table 4, S. aureus 33591, read-out: S. aureus 33591 MIC.
Where [11] appears, read: ATCC25922, Table 4, E. coli 25922, read-out: E. coli 25922 MIC.
The mark [12] stands for this setting: ATCC27853, Table 5, P. aeruginosa 27853, read-out: P. aeruginosa 27853 MIC.
The mark [13] stands for this setting: Table 4, S. aureus USA300, read-out: S. aureus USA300 MIC.
[14] abbreviates: Table 4, S. aureus USA600, read-out: S. aureus USA600 MIC.

With `C[C@@H](O)[C@H]1C(=O)N2C(C(=O)[O-])=C(S[C@@H]3CC[N+](C)(CC4CCNCC4)C3)[C@H](C)[C@H]12` (stereo partly drawn) [Example 33, (4R,5S,6S)-6-((R)-1-hydroxyethyl)-4-methyl-3-(((3R)-1-methyl-1-(piperidin-4-ylmethyl)pyrrolidin-1-ium-3-yl)thio)-7-oxo-1-azabicyclo[3.2.0]hept-2-ene-2-carboxylate], the MIC was 8 to 32 µg/mL in assay [1] (setting [7]), less than 1 µg/mL in assay [2] (setting [8]), 1 to 4 µg/mL in assay [3] (setting [9]) and 1 to 4 µg/mL in assay [4].
As to `C[C@@H](O)[C@H]1C(=O)N2C(C(=O)O)=C(S[C@@H]3CCN(Cc4ccc(C(N)CN)cc4)C3)[C@H](C)[C@H]12` (stereo partly drawn) [Example 34, (4R,5S,6S)-3-(((3R)-1-(4-(1,2-diaminoethyl)benzyl)pyrrolidin-3-yl)thio)-6-((R)-1-hydroxyethyl)-4-methyl-7-oxo-1-azabicyclo[3.2.0]hept-2-ene-2-carboxylic acid], the MIC in assay [1] (setting [7]) is 1 to 4 µg/mL; in assay [2] (setting [8]), less than 1 µg/mL; in assay [3] (setting [9]), 8 to 32 µg/mL; in assay [4] it was 8 to 32 µg/mL.
As to `C[C@@H](O)[C@H]1C(=O)N2C(C(=O)O)=C(S[C@@H]3CCN(CC4CCN(C)CC4)C3)[C@H](C)[C@H]12` [Example 39, (4R,5S,6S)-6-((R)-1-hydroxyethyl)-4-methyl-3-(((R)-1-((1-methylpiperidin-4-yl)methyl)pyrrolidin-3-yl)thio)-7-oxo-1-azabicyclo[3.2.0]hept-2-ene-2-carboxylic acid], the MIC in assay [1] (setting [10]) is 1 to 4 µg/mL; in assay [2] (setting [11]) it was less than 1 µg/mL; in assay [3] (setting [12]) it was 1 to 4 µg/mL; with S. aureus USA 300 (setting [13]) it was 1 to 4 µg/mL; in the assay on S. aureus USA600 (setting [14]), 1 to 4 µg/mL; in assay [5], less than 1 µg/mL. Also, the minimum inhibitory concentration (MIC) in assay [6] lay in the range of 1 to 4 µg/mL.
With `C[C@@H](O)[C@H]1C(=O)N2C(C(=O)O)=C(S[C@@H]3CCN(CC4CCN(CCO)CC4)C3)[C@H](C)[C@H]12` [Example 40, (4R,5S,6S)-6-((R)-1-hydroxyethyl)-3-(((R)-1-((1-(2-hydroxyethyl)piperidin-4-yl)methyl)pyrrolidin-3-yl)thio)-4-methyl-7-oxo-1-azabicyclo[3.2.0]hept-2-ene-2-carboxylic acid], the MIC in assay [1] (setting [10]) was 8 to 32 µg/mL; in assay [2] (setting [11]), less than 1 µg/mL; in assay [3] (setting [12]) it was 1 to 4 µg/mL; in the assay with S. aureus USA 300 (setting [13]) it was 1 to 4 µg/mL; with S. aureus USA600 (setting [14]), 1 to 4 µg/mL; in assay [5], less than 1 µg/mL. In addition, the MIC in assay [6] is 1 to 4 µg/mL.
For `C[C@@H](O)[C@H]1C(=O)N2C(C(=O)O)=C(S[C@@H]3CCN(CC4CCN(CC(N)=O)CC4)C3)[C@H](C)[C@H]12` [Example 41, (4R,5S,6S)-3-(((R)-1-((1-(2-amino-2-oxoethyl)piperidin-4-yl)methyl)pyrrolidin-3-yl)thio)-6-((R)-1-hydroxyethyl)-4-methyl-7-oxo-1-azabicyclo[3.2.0]hept-2-ene-2-carboxylic acid], the MIC in assay [1] (setting [10]) was 8 to 32 µg/mL; in assay [2] (setting [11]), less than 1 µg/mL; in assay [3] (setting [12]), 8 to 32 µg/mL; in the assay with S. aureus USA 300 (setting [13]) it was 1 to 4 µg/mL; with S. aureus USA600 (setting [14]), 1 to 4 µg/mL; in assay [5] it was less than 1 µg/mL. Moreover, the MIC in assay [6] is 1 to 4 µg/mL.
On to `C[C@@H](O)[C@H]1C(=O)N2C(C(=O)O)=C(S[C@@H]3CCN(CC4CCNCC4F)C3)[C@H](C)[C@H]12` (stereo partly drawn) [Example 45, (4R,5S,6S)-3-(((3R)-1-((3-fluoropiperidin-4-yl)methyl)pyrrolidin-3-yl)thio)-6-((R)-1-hydroxyethyl)-4-methyl-7-oxo-1-azabicyclo[3.2.0]hept-2-ene-2-carboxylic acid], for which the MIC is 1 to 4 µg/mL in assay [1] (ATCC33591, read-out: S. aureus 33591 MIC); less than 1 µg/mL in assay [2] (ATCC25922, read-out: E. coli 25922 MIC); 1 to 4 µg/mL in assay [3] (ATCC27853, read-out: P. aeruginosa 27853 MIC); 1 to 4 µg/mL with S. aureus USA 300 (USA300, read-out: S. aureus USA300 MIC); 1 to 4 µg/mL in the assay on S. aureus USA600 (USA600, read-out: S. aureus USA600 MIC); less than 1 µg/mL in assay [5]. The MIC in assay [6] lay within 1 to 4 µg/mL.
For `C[C@@H](O)[C@H]1C(=O)N2C(C(=O)O)=C(S[C@@H]3CCN(CC4CCNCC4(F)F)C3)[C@H](C)[C@H]12` (stereo partly drawn) [Example 46, (4R,5S,6S)-3-(((3R)-1-((3,3-difluoropiperidin-4-yl)methyl)pyrrolidin-3-yl)thio)-6-((R)-1-hydroxyethyl)-4-methyl-7-oxo-1-azabicyclo[3.2.0]hept-2-ene-2-carboxylic acid], the MIC in assay [1] (setting [10]) is 8 to 32 µg/mL; in assay [2] (setting [11]), less than 1 µg/mL; in assay [3] (setting [12]) it was 8 to 32 µg/mL; in the assay on S. aureus USA 300 (setting [13]) it was 1 to 4 µg/mL; in the assay on S. aureus USA600 (setting [14]) it was 1 to 4 µg/mL; in assay [5], less than 1 µg/mL. Besides, in assay [6], the MIC fell in the range of 1 to 4 µg/mL.
Consider `C[C@@H](O)[C@H]1C(=O)N2C(C(=O)O)=C(S[C@@H]3CCN(CC4CCN(C(=O)CN)CC4)C3)[C@H](C)[C@H]12` [Example 47, (4R,5S,6S)-3-(((R)-1-((1-glycylpiperidin-4-yl)methyl)pyrrolidin-3-yl)thio)-6-((R)-1-hydroxyethyl)-4-methyl-7-oxo-1-azabicyclo[3.2.0]hept-2-ene-2-carboxylic acid], for which the MIC is 8 to 32 µg/mL in assay [1] (setting [10]); less than 1 µg/mL in assay [2] (setting [11]); 1 to 4 µg/mL in assay [3] (setting [12]); 1 to 4 µg/mL with S. aureus USA 300 (setting [13]); 1 to 4 µg/mL in the assay on S. aureus USA600 (setting [14]); less than 1 µg/mL in assay [5]. The MIC in assay [6] is 1 to 4 µg/mL.
Regarding `CNCC(=O)N1CCC(CN2CC[C@@H](SC3=C(C(=O)O)N4C(=O)[C@H]([C@@H](C)O)[C@H]4[C@H]3C)C2)CC1` [Example 48, (4R,5S,6S)-6-((R)-1-hydroxyethyl)-4-methyl-3-(((R)-1-((1-(methylglycyl)piperidin-4-yl)methyl)pyrrolidin-3-yl)thio)-7-oxo-1-azabicyclo[3.2.0]hept-2-ene-2-carboxylic acid], the minimum inhibitory concentration (MIC) in assay [1] (setting [10]) was 8 to 32 µg/mL; in assay [2] (setting [11]), less than 1 µg/mL; in assay [3] (setting [12]), 1 to 4 µg/mL; with S. aureus USA 300 (setting [13]), 1 to 4 µg/mL; in the assay on S. aureus USA600 (setting [14]), 1 to 4 µg/mL; in assay [5], less than 1 µg/mL. Further, the MIC in assay [6] was 1 to 4 µg/mL.
For `C[C@@H](O)[C@H]1C(=O)N2C(C(=O)O)=C(S[C@@H]3CCN(C[C@H]4CCN(C(=N)N)C4)C3)[C@H](C)[C@H]12` [Example 52, (4R,5S,6S)-3-(((R)-1-(((R)-1-carbamimidoylpyrrolidin-3-yl)methyl)pyrrolidin-3-yl)thio)-6-((R)-1-hydroxyethyl)-4-methyl-7-oxo-1-azabicyclo[3.2.0]hept-2-ene-2-carboxylic acid], the MIC in assay [1] (setting [10]) was 1 to 4 µg/mL; in assay [2] (setting [11]), less than 1 µg/mL; in assay [3] (setting [12]), 1 to 4 µg/mL; with S. aureus USA 300 (setting [13]), less than 1 µg/mL; in the assay on S. aureus USA600 (setting [14]) it was less than 1 µg/mL; in assay [5], less than 1 µg/mL. The MIC in assay [6] was less than 1 µg/mL.
